Measurements reported in US11541029B2, “High penetration compositions and their applications” (Techfields Pharma Co., Ltd., priority 2008, dated 2023).

How the values were obtained:
[1] = system: normal SD rats (SLAC/SD); assay: Blood glucose in normal SD rats treated with HPCs of NSAIAs; assay type: in vivo; conditions: 30 mg/kg transdermally once per day, no fasting
Procedure, shortened: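 GK (type 2 diabetic) and normal SD rats, 14-16 weeks old, n=7, received 30 mg/kg test compound in 25% ethanol transdermally on a 6 cm^2 shaved back area once daily at 8 am for 6 weeks. Non-fasting blood glucose was measured at 4:30 pm every 3 days from week 3 to week 6.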

[2] = system: rats given sterilized E. coli suspension as a pyrogen; assay: Antipyretic activity of aspirin and its HPC (Study B); assay type: in vivo; conditions: for body temperature: in °C (unit assumed)
Protocol: […] Group A was the control group. The body temperature of rats was taken at 90 min. intervals before and after the administration of the test compounds.

[3] = Amount of salicylic acid in rat cerebrospinal fluid (CSF), 0.3 mmol/kg; assay type: in vivo, rats
Protocol: 27 male rats were divided into 4 groups […]. […] Amounts of salicylic acid in rat CSF were determined.

For `CCN(CC)CCOC(=O)c1ccccc1OC(C)=O.Cl` [P-1, diethylaminoethyl acetylsalicylate.HCl salt], the “blood glucose, Average (Week 2-5)” value [1] was 5.7 ± 1.3 mmol/L, the “blood glucose, Day 1” value [1] was 5.8 ± 1.5 mmol/L and the antipyretic activity ([2]; 20 mg/kg, oral administration) was “almost the same antipyretic activity as 100 mg/kg of aspirin”. It also gave a body temperature ([2]; 20 mg/kg, orally, t = 0 min.) of 37.6 ± 0.3, a body temperature ([2]; 20 mg/kg, orally, t = 90 min.) of 37.1 ± 0.4 and a body temperature ([2]; 20 mg/kg, orally, t = 180 min.) of 36.8 ± 0.2. It also gave a body temperature ([2]; 20 mg/kg, orally, t = 270 min.) of 36.5 ± 0.3, a body temperature ([2]; 50 mg/kg, orally, t = 0 min.) of 37.6 ± 0.3 and a body temperature ([2]; 50 mg/kg, orally, t = 90 min.) of 36.7 ± 0.3. The body temperature ([2]; 50 mg/kg, orally, t = 180 min.) was 36.5 ± 0.2, the body temperature ([2]; 50 mg/kg, orally, t = 270 min.) was 36.4 ± 0.3 and the body temperature ([2]; 100 mg/kg, orally, t = 0 min.) was 37.6 ± 0.4. It also gave a body temperature ([2]; 100 mg/kg, orally, t = 90 min.) of 36.6 ± 0.4, a body temperature ([2]; 100 mg/kg, orally, t = 180 min.) of 36.5 ± 0.3 and a body temperature ([2]; 100 mg/kg, orally, t = 270 min.) of 36.4 ± 0.3. The body temperature ([2]; groups H/I, 50 mg/kg, transdermally, t = 0 min.) was 37.5 ± 0.3, the body temperature ([2]; groups H/I, 50 mg/kg, transdermally, t = 90 min.) was 36.5 ± 0.2 and the body temperature ([2]; groups H/I, 50 mg/kg, transdermally, t = 180 min.) was 36.3 ± 0.3. For the same compound, the body temperature ([2]; groups H/I, 50 mg/kg, transdermally, t = 270 min.) was 36.4 ± 0.2, the body temperature ([2]; groups J/K, 20 mg/kg, transdermally, t = 0 min.) was 37.5 ± 0.4 and the body temperature ([2]; groups J/K, 20 mg/kg, transdermally, t = 90 min.) was 36.7 ± 0.2. It also gave a body temperature ([2]; groups J/K, 20 mg/kg, transdermally, t = 180 min.) of 36.4 ± 0.2, a body temperature ([2]; groups J/K, 20 mg/kg, transdermally, t = 270 min.) of 36.4 ± 0.2 and a body temperature ([2]; groups L/M, 20 mg/kg, transdermally, t = 0 min.) of 37.6 ± 0.2. For the same compound, the body temperature ([2]; groups L/M, 20 mg/kg, transdermally, t = 90 min.) was 36.5 ± 0.4, the body temperature ([2]; groups L/M, 20 mg/kg, transdermally, t = 180 min.) was 36.4 ± 0.3 and the body temperature ([2]; groups L/M, 20 mg/kg, transdermally, t = 270 min.) was 36.5 ± 0.2. For the same compound, the “salicylic acid in CSF” value ([3]; intramuscularly, 1 hour) was 36.4 ± 4.3 nmol/g, the “salicylic acid in CSF” value ([3]; intramuscularly, 8 hours) was 28.2 ± 6.5 nmol/g and the “salicylic acid in CSF” value ([3]; intramuscularly, 18 hours) was 15.1 ± 4.7 nmol/g. For the same compound, the “salicylic acid in CSF” value ([3]; transdermally, 1 hour) was 38 ± 17 nmol/g, the “salicylic acid in CSF” value ([3]; transdermally, 8 hours) was 28.4 ± 7.5 nmol/g and the “salicylic acid in CSF” value ([3]; transdermally, 18 hours) was 22.3 ± 5.4 nmol/g.
